Data taken from US4477664A, “Novel 1-(4-piperidiniobenzyl)-2,3-dioxopiperazine derivatives or acid addition salts thereof” (Toyama Chemical Co., Ltd., priority 1979, dated 1984).
≈ marks a conversion by molar mass, not a printed value.

Assays:
HeLa S3 cells = assay: MIC value against HeLa S3 cells (microplate method); assay type: cell-based; settings: Homo sapiens, 96 h, 2×10^4 cells/ml, 4 days, Giemsa staining
From the text: (§1) a. MIC value against HeLa S3 cells and Ehrlich cells (microplate method) Number of cells: 2×10^4 cells/ml Culture medium: Eagle's MEM+20% calf embryonic serum Culture time: 4 days Judgement: Giemsa staining

Ehrlich cells = assay: MIC value against Ehrlich cells (microplate method); assay type: cell-based; settings: 96 h, 2×10^4 cells/ml, 4 days, Giemsa staining
From the text: as §1

[1] = tested on: Ehrlich ascites carcinoma cells; assay: Effect on Ehrlich carcinoma (i): intraperitoneal inoculation, mean survival days; assay type: in vivo, ICR-strain mice; settings: Mus musculus, ip, 168 h, once a day for 7 days, read-out: T/C (mean survival days)
Description: (i) Ehrlich ascites carcinoma cells (1×10^6 cells/head) were inoculated intraperitoneally into ICR-strain mice (female, 6 to 7 weeks old, each group consisting of 5 or 4 mice), and after 24 hours, the […] The effect thereof was judged from the mean survival days.
The test drugs were used in the form of a solution or suspension in a saline solution or a 0.3% carboxymethyl cellulose-containing saline solution. [formula]

[2] = tested on: Ehrlich ascites carcinoma cells; assay: Effect on Ehrlich carcinoma (ii): subcutaneous inoculation at inguinal region, mean tumor weight; assay type: in vivo, ICR-strain mice; settings: intraperitoneally, once a day for 5 days, judgement day 13
Description: (ii) Ehrlich ascites carcinoma cells (4×10^6 cells/head) were inoculated subcutaneously at the inguinal region into ICR-strain mice (female, 6 to 7 weeks old, each group consisting of 5 or 4 mice), and after 24 hours, the intraperitaneal or oral administration of a test drug was started and effected once a day for 5 days. The effect thereof was judged from the mean weight of tumor on the 13th or 15th day, respectively.
The test drug was used in the form of a solution or suspension in a saline solution or a 0.3% carboxymethyl cellulose-containing saline solution. [formula]

[3] = tested on: Ehrlich ascites carcinoma cells; assay: Effect on Ehrlich carcinoma (iii): subcutaneous inoculation at right armpit, mean tumor weight; assay type: in vivo, ICR-strain mice; settings: 100 mg/kg, orally, once a day for 7 days, 14th day
Description: (iii) Ehrlich ascites carcinoma cells (4×10^6 cells/head) were inoculated subcutaneously at the right armpit region into ICR-strain mice (female, 7 weeks old, each group consisting of 6 or 7 mice), and after 24 hours, the oral administration or subcutaneous administration at the dorsal region of a test drug was started, and effected once a day for 7 days. The effect thereof was judged from the mean weight of the tumor on the 14th day. The test drug was used in the form of a solution or suspension in a saline solution or a 0.3% carboxymethyl cellulose-containing saline solution.
T/C was calculated in the same manner as in above (ii).

L-1210 ascites cells = assay: Effect on L-1210 leukemia (i): intraperitoneal inoculation, mean survival days; assay type: in vivo, BDF1-strain mice; settings: 50 mg/kg
Description: (i) L-1210 ascites cells (1×10^5 cells/head) were inoculated intraperitoneally into BDF1 -strain mice (female, 6 weeks old, each group consisting of 4 mice), and after 24 hours, the intraperitoneal administration of a test drug was started and effected once a day. The effect thereof was judged from the mean survival days. The test drug was used in the form of a solution or suspension in a saline solution or a 0.3% carboxymethyl cellulose-containing saline solution.
T/C was calculated in the same manner as in above b (i).

Acute toxicity = settings: mouse, in vivo, ip; intraperitoneal, once, male mice, observed for 7 days
From the text: The test drugs were used in the form of a solution or suspension in a saline solution or a 0.3% carboxymethyl cellulose-containing saline solution.

SMILES	MIC (HeLa S3 cells) [µg/mL]	MIC (Ehrlich cells) [µg/mL]	response vs control in vivo at 100 mg/kg [1] [%]	further results
Cc1ccc(Nc2ccc(CN3CCN(Cc4ccccc4)C(=O)C3=O)cc2)nc1 [Compound 25]	0.39 (≈ 0.974 µM)	0.39 (≈ 0.974 µM)		
CCCCCCN1CCN(Cc2ccc(N(CC)CC)cc2)C(=O)C1=O [Compound 26]	3.13 (≈ 8.71 µM)	3.13 (≈ 8.71 µM)		response vs control in vivo at 40 mg/kg [1]: 157%; T/C (mean tumor weight) ([2]; 6.25 mg/kg): 64%; T/C (mean tumor weight) ([2]; 12.5 mg/kg): 67%; T/C (mean tumor weight) ([2]; 25 mg/kg): 61%
CC=CC=CCN1CCN(Cc2ccc(N(CC)CC)cc2)C(=O)C1=O [Compound 27]	6.25 (≈ 17.6 µM)	6.25 (≈ 17.6 µM)		
CCCCCCN1CCN(Cc2ccc(N(CC)CC)c(Cl)c2)C(=O)C1=O [Compound 28]	12.5 (≈ 31.7 µM)	12.5 (≈ 31.7 µM)	165	response vs control in vivo at 40 mg/kg [1]: > 173%
CCCCCCN1CCN(Cc2ccc(N(CC)CC)c(C)c2)C(=O)C1=O [Compound 29]	12.5 (≈ 33.5 µM)	12.5 (≈ 33.5 µM)	184	
CCCCCCN1CCN(Cc2ccc(N(CC)CC)cc2Cl)C(=O)C1=O [Compound 30]	3.13 (≈ 7.94 µM)	3.13 (≈ 7.94 µM)	152	
CCCCCCN1CCN(Cc2ccc(N3CCCCC3)cc2)C(=O)C1=O [Compound 31]	3.13 (≈ 8.42 µM)	3.13 (≈ 8.42 µM)		
CCCCCCN1CCN(Cc2ccc(NCC)cc2)C(=O)C1=O [Compound 32]	6.25 (≈ 18.9 µM)	6.25 (≈ 18.9 µM)		
CCCCCCN1CCN(Cc2ccc(NC(C)C)cc2)C(=O)C1=O [Compound 33]	0.78 (≈ 2.26 µM)	0.78 (≈ 2.26 µM)		
CCCCCCN1CCN(Cc2ccc(NC(=O)CCl)cc2)C(=O)C1=O [Compound 34]	0.39 (≈ 1.03 µM)	0.39 (≈ 1.03 µM)	> 142	response vs control in vivo at 200 mg/kg ([1]; 200 mg/kg): 157%
CCCCCCN1CCN(Cc2ccc(NCc3ccncc3)cc2)C(=O)C1=O [Compound 35]	6.25 (≈ 15.8 µM)	6.25 (≈ 15.8 µM)	> 187	response vs control in vivo at 50 mg/kg [1]: 146%
CCN(CC)c1ccc(CN2CCN(Cc3cnc(Cl)nc3Cl)C(=O)C2=O)cc1 [Compound 36]	12.5 (≈ 28.6 µM)	12.5 (≈ 28.6 µM)	204	response vs control in vivo at 40 mg/kg [1]: > 190%
CCN(CC)c1ccc(CN2CCN(CCN)C(=O)C2=O)cc1 [Compound 37]	25 (≈ 78.5 µM)	25 (≈ 78.5 µM)		T/C (mean tumor weight) ([2]; 25 mg/kg): 54%; T/C (mean tumor weight) ([2]; 50 mg/kg): 52%; T/C (mean tumor weight) ([2]; 100 mg/kg): 65%
CCN(CC)c1ccc(CN2CCN(Cc3ccccn3)C(=O)C2=O)cc1 [Compound 38]	25 (≈ 68.2 µM)	25 (≈ 68.2 µM)	160	
CCN(CC)c1ccc(CN2CCN(Cc3cccnc3)C(=O)C2=O)cc1 [Compound 39]	25 (≈ 68.2 µM)	25 (≈ 68.2 µM)	> 164	
CCN(CC)c1ccc(CNCCN2CCN(Cc3ccc(N(CC)CC)cc3)C(=O)C2=O)cc1 [Compound 40]	12.5 (≈ 26.1 µM)	12.5 (≈ 26.1 µM)		response vs control in vivo at 30 mg/kg ([1]; 30 mg/kg): 154%
Cc1nc(Nc2ccc(CN3CCN(Cc4ccccc4)C(=O)C3=O)cc2)ccc1N [Compound 42]	< 0.05	< 0.05		response vs control in vivo at 50 mg/kg [1]: 149%; T/C (mean tumor weight) [3]: 54%; T/C (mean survival days) (L-1210 ascites cells; 7 administrations): 148%; LD50 at 168 h (Acute toxicity): > 200 mg/kg
Cc1cc(Nc2ccc(CN3CCN(Cc4ccccc4)C(=O)C3=O)cc2)ncc1N [Compound 43]	< 0.05	< 0.05		T/C (mean survival days) (L-1210 ascites cells; 7 administrations): 143%; LD50 at 168 h (Acute toxicity): > 200 mg/kg
Cc1cc(Nc2ccc(CN3CCN(Cc4ccccc4)C(=O)C3=O)cc2)nc(C)c1N [Compound 44]	0.78 (≈ 1.82 µM)	0.78 (≈ 1.82 µM)		T/C (mean survival days) (L-1210 ascites cells; 3 administrations): 137%; LD50 at 168 h (Acute toxicity): > 200 mg/kg
Nc1cnc(Nc2ccc(CN3CCN(Cc4ccccc4)C(=O)C3=O)cc2)nc1 [Compound 45]	0.05 (≈ 0.124 µM)	0.05 (≈ 0.124 µM)		
